EC50 data for 15 compounds are collected here from US11603373B2, “TDO2 and IDO1 inhibitors” (Genentech, Inc., priority 2017, dated 2023).

For test [1], the target named is T1, TDO2 (SW48 cells, high TDO expressing cells) (Homo sapiens, UniProt P48775).
T1 construct: SW48 cells (high TDO expressing cells); endogenous in cells; host or cells: SW48 cells
Description: NFK GreenScreen cell assay, inhibition of TDO in SW48 cells. The class given is cell-based. The conditions noted are these: read-out: TDO2 Cell Fluor EC50. The text has this: (§1) Cells are counted on a Vi-Cell (Beckman Coulter). […] The final DMSO concentration is 0.5%.

Test [2] deals with T2, IDO1 (A172+IFNg cells, high IDO expressing cells) (Homo sapiens, UniProt P14902).
T2 construct: A172+IFNg cells (high IDO expressing cells); endogenous in cells; host or cells: A172 cells induced with 100 ng/ml IFNγ
Description: NFK GreenScreen cell assay, inhibition of IDO in A172+IFNg cells. The class given is cell-based. The conditions noted are these: read-out: IDO cell Fluor EC50.
Description: as §1

T2 sequence (P14902 whole entry): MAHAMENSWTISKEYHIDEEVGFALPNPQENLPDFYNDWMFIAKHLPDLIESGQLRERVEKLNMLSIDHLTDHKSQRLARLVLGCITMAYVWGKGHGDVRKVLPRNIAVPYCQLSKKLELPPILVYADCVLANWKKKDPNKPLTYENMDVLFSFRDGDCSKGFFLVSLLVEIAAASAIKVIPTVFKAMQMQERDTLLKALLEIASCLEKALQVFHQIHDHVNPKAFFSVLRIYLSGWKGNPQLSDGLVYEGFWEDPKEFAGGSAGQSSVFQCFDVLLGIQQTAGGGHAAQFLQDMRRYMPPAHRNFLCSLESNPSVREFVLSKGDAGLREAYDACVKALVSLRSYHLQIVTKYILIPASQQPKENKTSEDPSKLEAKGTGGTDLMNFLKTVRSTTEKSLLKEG
T1 sequence (P48775 whole entry): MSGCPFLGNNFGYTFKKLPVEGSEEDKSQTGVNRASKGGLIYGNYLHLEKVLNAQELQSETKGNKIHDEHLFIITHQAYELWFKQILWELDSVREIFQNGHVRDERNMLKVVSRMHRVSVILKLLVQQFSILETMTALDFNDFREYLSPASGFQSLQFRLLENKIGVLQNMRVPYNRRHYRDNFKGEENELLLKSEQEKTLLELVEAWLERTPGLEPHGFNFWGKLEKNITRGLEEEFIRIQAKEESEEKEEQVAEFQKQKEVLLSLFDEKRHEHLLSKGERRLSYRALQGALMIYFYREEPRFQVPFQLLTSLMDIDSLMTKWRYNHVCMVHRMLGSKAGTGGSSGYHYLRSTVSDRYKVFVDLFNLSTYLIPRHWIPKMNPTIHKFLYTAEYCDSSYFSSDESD

For orientation: EC50 means the concentration giving half of the maximal effect. With `N#CCS(=O)(=O)N1CCC2(CC1)CC(C1c3ccccc3-c3cncn31)C2O` (stereo not drawn) [Example 21a, 2-[[3-hydroxy-2-(5H-imidazo[,5-b]isoindol-5-yl)-7-azaspiro[3.5]nonan-7-yl]sulfonyl]acetonitrile], the EC50 worked out at 0.18 µM in test [1] and 0.15 µM in test [2]. The corresponding values for `N#CCS(=O)(=O)N1CCC2(CC1)C[C@@H]([C@H]1c3ccccc3-c3cncn31)[C@H]2O` [Example 21b, (2S,3R)-2-[[3-hydroxy-2-((5S)-5H-imidazo[1,5-b]isoindol-5-yl)-7-azaspiro[3.5]nonan-7-yl]sulfonyl]acetonitrile] are 0.1 µM and 0.075 µM.

Take `O=S(=O)(C(F)F)N1CCC2(CC1)C[C@@H]([C@H]1c3ccccc3-c3cncn31)[C@H]2O` (single isomer, unassigned) [Example 14b]: the EC50 was determined as 0.13 µM in test [1] and 0.068 µM in test [2]. For the compound `O=S1(=O)CCC2(CC[C@H]([C@@H]3c4ccccc4-c4cncn43)[C@@H]2O)CC1` (single isomer, unassigned) [Example 13b], the EC50 was found to be 3.3 µM in test [1] and 7.2 µM in test [2]. As for `CC(C)(C)OC(=O)N1[C@@H]2CC[C@H]1C[C@]1(C[C@@H]([C@@H]3c4ccccc4-c4cncn43)[C@H]1O)C2` (single isomer, unassigned) [Example 12l], the half-maximal effective concentration (EC50) came to 0.41 µM in test [1] and 12 µM in test [2]. For `CC(C)(C)OC(=O)N1[C@@H]2CC[C@H]1C[C@]1(C[C@H]([C@@H]3c4ccccc4-c4cncn43)[C@H]1O)C2` (single isomer, unassigned) [Example 12g], in that order: 2.1 µM and 4.7 µM. The corresponding values for `CC(C)(C)OC(=O)N1CC2(CC[C@H]([C@H]3c4ccccc4-c4cncn43)[C@H]2O)C1` (single isomer, unassigned) [Example 3d] are 0.13 µM and 4 µM. The corresponding values for `O=C(CN1CCCCC1=O)N1CCC2(CC1)CC(C1c3ccccc3-c3cncn31)C2O` (stereo not drawn) [compound 39, 1-[2-[3-hydroxy-2-(5H-imidazo[1,5-b]isoindol-5-yl)-7-azaspiro[3.5]nonan-7-yl]-2-oxo-ethyl]piperidin-2-one] are 3.9 µM and 3.3 µM. `NS(=O)(=O)N1CCC2(CC1)C[C@@H]([C@@H]1c3ccccc3-c3cncn31)[C@@H]2O` (single isomer, unassigned) [Example 11h]: the EC50 in test [1] turned out to be 11 µM.

`CC(C)(C)OC(=O)N[C@H]1CC[C@]2(CC1)C[C@H]([C@H]1c3ccccc3-c3cncn31)[C@H]2O` (single isomer, unassigned) [Example 24i]: the EC50 in test [1] was 0.26 µM; in test [2] it was 0.96 µM.

As for `O=C(C1CCc2nncn2C1)N1CCC2(CC1)CC(C1c3ccccc3-c3cncn31)C2O` (stereo not drawn) [compound 67, [3-hydroxy-2-(5H-imidazo[1,5-b]isoindol-5-yl)-7-azaspiro[3.5]nonan-7-yl]-(5,6,7,8-tetrahydro-[1,2,4]triazolo[4,3-a]pyridin-6-yl)methanone], the EC50 in test [1] is 23 µM.

As to `CC(C)(C)OC(=O)N[C@H]1CC[C@]2(CC1)C[C@@H]([C@H]1c3ccccc3-c3cncn31)[C@@H]2O` (single isomer, unassigned) [Example 24o], the EC50 in test [1] came out at 20 µM. Same read-out and setting: under `CC(=O)N1CCC2(CC[C@@H]([C@H]3c4ccccc4-c4cncn43)[C@H]2O)CC1` (single isomer, unassigned) [Example 10a] stands 24 µM; under `NS(=O)(=O)N1CCC2(CC1)C[C@@H]([C@H]1c3ccccc3-c3cncn31)[C@@H]2O` (single isomer, unassigned) [Example 11d], 3 µM.

As for `CC(C)(C)OC(=O)N1CC2CCC(C1)C21C[C@H]([C@H]2c3ccccc3-c3cncn32)[C@@H]1O` (stereo partly drawn) [Example 22c, tert-butyl (2′S,3′R)-2′-hydroxy-3′-((S)-5H-imidazo[5,1-a]isoindol-5-yl)-3-azaspiro[bicyclo[3.2.1]octane-8,1′-cyclobutane]-3-carboxylate], the EC50 in test [2] worked out at 8.8 µM.
